Measurements taken from patent US7802989B2, “Ozone tray” (CurOzone Ireland Ltd., priority 2000, dated 2010).

Tested on: white spots
Assay: Ozone applied through tray over teeth and gums with in situ orthodontic bands; teeth examined for white spots
Type: in vivo
Settings: ozone introduced for up to 2 minutes
From the text: The method includes disposing the resilient elastomeric tray over the teeth 124 and orthodontic bands 160 applied thereto.
Ozone introduced into the cavity 136 via the port 150 is provided for a period of time to treat the white spots and sterilize the orthodontic bands 160.
Thereafter, the ozone is evacuated from the cavity 136 via the nozzle 128 and the tray 120 is removed from the arched upper or lower teeth 124.
The tray is disposed over teeth and gums with in situ orthodontic bands and ozone introduced for up to 2 minutes.

In the case of `O=[O+][O-]` [ozone], the “examination of teeth for white spots after ozone treatment” value is reported as “beneficial results”.
